According to US20240009269A1 (priority 2020, published 2024):

Tests used:
dhBMECs monolayers = test: Melittin-induced disruption of dhBMEC monolayers (transwell assay); format: cell-based, human
Description: Induced pluripotent stem cell (iPSC)-derived brain microvascular endothelial cells (dhBMECs) mimic the barrier function of the human BBB. DhBMECs were differentiated as previously reported. The BC1 iPSC line derived from a healthy individual was used for all experiments. After eleven days of differentiation, cells were detached using Accutase (A1110501, Thermo Fisher Scientific), and seeded onto transwells, glass slides, or type I collagen microchannels coated overnight with 50 μg mL^−1 human placental collagen IV (Catalog Number (Cat. No.) C5533, Sigma-Aldrich) and 25 μg mL^−1 fibronectin from human plasma (Cat. No. F1141, Sigma-Aldrich). Cells have previously been characterized for expression of tight junction proteins, efflux pumps, and nutrient transporters as well as measurements of barrier function including transendothelial electrical resistance (TEER) or solute permeability. Here, cells with TEER of at least 1500 Ω cm2 were used for all experiments. After detachment, cells were cultured in BBB induction medium: human endothelial cell serum-free medium (HESFM) (Cat. No. 11111044, Thermo Fisher Scientific) supplemented with 1% human platelet poor derived serum (Cat. No. P2918, Sigma-Aldrich), 1% penicillin-streptomycin (Cat. No. 15140122, Thermo Fisher Scientific), 2 ng mL^−1 bFGF (Cat. No. 233FB025CF, Fisher Scientific), and 10 μM all-trans retinoic acid (Cat. No R2625, Sigma-Aldrich). After 24 hours, cells were further cultured in BBB maintenance medium: HESFM supplemented with 1% human platelet poor derived serum and 1% penicillin-streptomycin. Human cortical neuron HCN-2 cells (CRL-10742) were obtained from ATCC (Manassas, VA, USA). HCN-2 cells were cultured in DMEM (Cat. No. 31600091, Thermo Fisher Scientific), adjusted to contain 1.5 g L^−1 sodium bicarbonate, 4.5 g L^−1 D-glucose, and supplemented with 10% heat-inactivated FBS (Cat. No. F4135, Sigma-Aldrich), following ATCC recommendations.
Corning transwell supports (Cat. No. 3470) were coated with 25 μg mL^−1 fibronectin and 50 μg mL^−1 collagen IV overnight at 37° C. DhBMECs were seeded on transwells in BBB induction medium at 10^6 cells cm^−2. […] On day 2, the TEER for monolayers was measured using EVOM-2 and STX-100 electrode (World Precision Instruments, Sarasota, FL), and monolayers with TEER>1500 Ω cm2 were used for the permeability experiment. […] After the permeability experiment, the TEER across monolayers was measured. Dextran fluorescence in the receiving chamber and in the initial apical solution (Co) was measured using the Synergy H4 plate reader (Biotek Instruments Inc., Winooski, VT) and was converted to dextran concentrations using the dextran-fluorescein standard curves. The apparent permeability (Papp) was calculated from Formula 1 below: […]

[1] = system: 2D dhBMEC monolayers (ZO1); test: Immunocytochemistry of zona occludens-1 in 2D dhBMEC monolayers; format: cell-based, human
Description: Antibodies used in the study are described in Table 3. LabTek 8-chamber slides (Cat. No. 155411, Thermo Fisher Scientific) were coated with 25 μg mL^−1 fibronectin and 50 μg mL^−1 collagen IV overnight at 37° C. BC1 cell were seeded in BBB induction medium at 5×10^5 cells cm^−2. On day 1 after seeding, dhBMECs were washed twice with BBB maintenance medium and incubated in the medium overnight. On day 2, the cells were washed twice with BBB maintenance medium and treated with 1.5 μM, 5 μM, and 10 μM of melittin, diluted in the medium, for 2 minutes, 5 minutes, 10 minutes, or 90 minutes. The resulting melittin dosages, calculated as the product of melittin concentration and incubation time, were 3 μM·minutes, 25 μM·minutes, 100 μM minutes, and 450 μM·minutes. A negative control without melittin was included with every experiment. After the melittin incubation, the cells were washed twice with 1×PBS azide and fixed in 3.7% paraformaldehyde solution for 10 minutes or methanol for 15 minutes. The fixed cells were washed with 1×PBS azide and incubated in blocking solution (10% goat serum, 0.3% TritonX-100 in 1×PBS azide) at 4° C. for 1-2 days. The cells were incubated with primary antibodies for 2 hours at room temperature. […]

[2] = Estimated systemic exposure after intra-arterial injection; format: in vivo, mouse

Compound: CC[C@H](C)[C@H](NC(=O)CN)C(=O)NCC(=O)N[C@@H](C)C(=O)N[C@H](C(=O)N[C@@H](CC(C)C)C(=O)N[C@@H](CCCCN)C(=O)N[C@H](C(=O)N[C@@H](CC(C)C)C(=O)N[C@H](C(=O)N[C@H](C(=O)NCC(=O)N[C@@H](CC(C)C)C(=O)N1CCC[C@H]1C(=O)N[C@@H](C)C(=O)N[C@@H](CC(C)C)C(=O)N[C@H](C(=O)N[C@@H](CO)C(=O)N[C@@H](Cc1c[nH]c2ccccc12)C(=O)N[C@H](C(=O)N[C@@H](CCCCN)C(=O)N[C@@H](CCCNC(=N)N)C(=O)N[C@@H](CCCCN)C(=O)N[C@@H](CCCNC(=N)N)C(=O)N[C@@H](CCC(N)=O)C(=O)N[C@@H](CCC(N)=O)C(N)=O)[C@@H](C)CC)[C@@H](C)CC)[C@@H](C)O)[C@@H](C)O)C(C)C)C(C)C [melittin]
- concentrations for membrane activity (dhBMECs monolayers): 1 to 10 µM
- 500 kDa dextran permeability across dhBMECs (dhBMECs monolayers; 5 μM melittin for 90 minutes, transwell): increased
- concentration above which disruption is induced in confluent monolayers (dhBMECs monolayers; confluent dhBMEC monolayers): above 1 μM
- cell morphology (phase contrast) (dhBMECs monolayers; dhBMECs on glass slides, 5 μM melittin for 90 minutes): cell swelling and detachment
- monolayer integrity ([1]; 450 μM·minute dose): significant cell detachment was observed
- ZO1 protein expression compared to controls ([1]; doses of 3-100 μM·minute): did not result in large changes
- systemic dose, fold lower than the LD50 ([2]; 3 μM·min melittin, mouse weight of 20 g assumed): ~50 fold
- melittin concentration after dilution in the bloodstream ([2]; 3 μM·min, 150 μL injection diluted into 1.2 mL of whole blood (assumed)): 0.33 µM
- reduction of melittin concentration upon exiting the brain ([2]; dilution in the bloodstream assumed): ~10 fold
